Here are results for three molecules from publication PMC10020809, “A Phase Ib/II Study of WNT974 + Encorafenib + Cetuximab in Patients With BRAF ^V600E-Mutant KRAS Wild-Type Metastatic Colorectal Cancer” (The Oncologist, 2023).

Marks after values point to notes of the source that are not given here.

A word on the AUC(0-t): it is exposure summed from dosing to a finite time, without extrapolation to infinity. As usually defined, the AUC is the area under the concentration-time curve, a measure of exposure. High values mean high exposure, low ones low exposure. One may read the Cmax as the peak of the concentration-time curve. The term half-life denotes how long it takes for the measured level to halve. High values mean slow decline, low ones rapid decline. For orientation: Tmax means the time from dosing to the highest level.

Data set [1] in a line: Plasma pharmacokinetics, noncompartmental. The data set is classed as in vivo, human. Particulars: for t 1/2 / AUC(0-t) / AUC / Cmax / half-life: mean (SD); for AUC(0-t) / AUC / Cmax / half-life / Tmax: human, plasma, oral. The protocol: To assess plasma concentrations of WNT974, its active metabolite LHA333, and encorafenib, serial blood samples were collected on days 1 and 15 of cycle 1, and pre-dose blood samples were collected on days 2, 8, 16, and 22 of cycle 1, and on day 1 of cycles 2, 3, and 4. PK parameters were determined using noncompartmental methods. The PK analysis set included all patients with at least one available valid PK concentration measurement who received at least one dose of study drug.

The subject of data set [2] is patients with BRAF V600E-mutant mCRC with RNF43 mutations or RSPO fusions. Kind of data set: Safety: adverse events (CTCAE v4.03), phase Ib. Particulars: human, in vivo. Here is the method:
Patients who developed hypercalcemia (any grade) were treated with bisphosphonates per institutional standards.
The primary endpoints of the phase Ib study were the incidence of DLTs and exposure to WNT974 and encorafenib as measured by PK parameters. A DLT was defined as an AE or abnormal laboratory value assessed as unrelated to disease, disease progression, intercurrent illness, or concomitant medications that occurred within the first 28 days of treatment with WNT974 + encorafenib + cetuximab. The secondary endpoints for this study included the objective response rate (ORR; RECIST 1.1), disease control rate (DCR), and frequency and severity of AEs (Common Terminology Criteria for Adverse Events v4.03).
Tumor assessments were performed at baseline (screening) and every 6 weeks after starting study treatment until disease progression, initiation of subsequent antineoplastic therapy, or death, whichever occurred first. End-of-treatment tumor assessment was conducted within 14 days of receiving the last dose or treatment discontinuation. Safety was assessed throughout the study and included physical examinations, vital signs, weight, performance status evaluation, laboratory evaluations, dermatologic evaluations, ophthalmological examinations, bone loss assessments, cardiac assessments, and documentation of all non-serious and serious AEs (SAEs). […]

The test system of data set [3] is patients with advanced solid tumors. The arrangement: method as in PMID 33941878. The settings on record: cited from earlier work.
Another data set deals with CRC preclinical models. The arrangement: method as in PMID 31233627, PMID 28695896, PMID 23847203. Particulars: in vitro and in vivo; cited from earlier work.
Data set [4] concerns patients with advanced solid tumors; HER2-negative breast cancer or pancreatic cancer. The settings on record: in vivo; cited from earlier work.
Where [5] appears, read: 200 mg, All cohorts, encorafenib 200 mg once daily, day 15 of cycle 1, plasma.
[6] abbreviates: COMBO5, day 15 of cycle 1, plasma.
The mark [7] stands for this setting: COMBO7.5, day 15 of cycle 1, plasma.
Where [8] appears, read: COMBO10, day 15 of cycle 1, plasma.

For the molecule `COC(=O)N[C@@H](C)CNc1nccc(-c2cn(C(C)C)nc2-c2cc(Cl)cc(NS(C)(=O)=O)c2F)n1` [Encorafenib, encorafenib], in data set [1] (All cohorts, encorafenib 200 mg once daily, day 15 of cycle 1, plasma), the “t 1/2” value was 4.29 (2.42)^b h. In addition, in data set [1] (All cohorts, encorafenib 200 mg once daily, day 15 of cycle 1, plasma, median (range)), the T max is recorded as 1.95 (0.48-7.17) h. The “Mean AUC and maximum plasma drug concentration across treatment combinations” value in data set [1] (day 15 of cycle 1) was “generally comparable across all treatment combinations”. Moreover, the AUC(0-t) in data set [1] (200 mg, All cohorts (N = 17), encorafenib 200 mg once daily, day 15 of cycle 1, plasma) turned out to be 13.7 µg·h/mL. In data set [1] (setting [5]), this molecule gave an AUC of 13.8 µg·h/mL, a Cmax of 2.84 µg/mL and a half-life of 4.3 h. The Tmax in data set [1] (200 mg, All cohorts, encorafenib 200 mg once daily, day 15 of cycle 1, plasma, median (range)) is ~2 h.
For the molecule `Cc1cc(-c2ncc(CC(=O)Nc3ccc(-c4cnccn4)cn3)cc2C)ccn1` [WNT974], in data set [2], the “Reported serious AEs of bone fracture” value is listed as 6. Also, in data set [1] (setting [6]), the “t 1/2” value is given as 4.74 (2.17) h, the exposure (AUC) is 0.227 µg·h/mL, the Cmax amounted to 0.051 µg/mL and the half-life is 4.7 h. Also, in data set [1] (setting [7]), the “t 1/2” value was 5.37 (0.697) h, the exposure (AUC) was found to be 0.384 µg·h/mL, the highest concentration (Cmax) came out at 0.0934 µg/mL and the half-life is 5.4 h. The “Dose dependence of mean AUC” value in data set [1] (WNT974 5, 7.5, 10 mg, day 15 of cycle 1) is reported as “increased in a dose-proportional manner”. The AUC(0-t) in data set [1] (COMBO5 (5 mg WNT974 once daily + encorafenib + cetuximab), day 15 of cycle 1, plasma) was found to be 0.22 µg·h/mL. In addition, in data set [1] (COMBO5, day 15 of cycle 1, plasma, median (range)), the Tmax amounted to 1 h. Besides, in data set [1] (COMBO7.5 (7.5 mg WNT974 once daily + encorafenib + cetuximab), day 15 of cycle 1, plasma), the AUC(0-t) amounted to 0.384 µg·h/mL. Besides, in data set [1] (COMBO7.5, day 15 of cycle 1, plasma, median (range)), the Tmax turned out to be 1.02 h. Also, the exposure AUC(0-t) in data set [1] (COMBO10 (10 mg WNT974 once daily + encorafenib + cetuximab), day 15 of cycle 1, plasma) amounted to 0.46 µg·h/mL. Besides, in data set [1] (setting [8]), the AUC is 0.542 µg·h/mL, the concentration peaked (Cmax) at 0.0429 µg/mL and the half-life is 11 h. In addition, in data set [1] (COMBO10, day 15 of cycle 1, plasma, median (range)), the time to peak (Tmax) worked out at 4 h. In data set [3] (across all doses), the “AE frequency: decreased appetite” value is 45.7%, the “AE frequency: dysgeusia” value was 50%, the “AE frequency: fatigue” value was 31.9% and the “AE frequency: nausea” value is 33.0%. The “AE frequency: vomiting” value in data set [3] (across all doses) is 30.9%. For the same molecule, in data set [3], the “Bone-related toxicities considered related to the study treatment” value is given as 5, the “Number of bone-related toxicities” value is listed as 7 and the “Patients who experienced bone-related toxicities” value was 6 patients. The Anti-tumor activity entry in the data set with CRC preclinical models is given as “demonstrated anti-tumor activity”.

B1: vantictumab: an anti-Frizzled antibody, given with chemotherapy (antibody, chains of the INN, looked up, V domains shown)
VH: EVQLVESGGGLVQPGGSLRLSCAASGFTFSHYTLSWVRQAPGKGLEWVSVISGDGSYTYYADSVKGRFTISSDNSKNTLYLQMNSLRAEDTAVYYCARNFIKYVFANWGQGTLVTVSS
VL: DIELTQPPSVSVAPGQTARISCSGDNIGSFYVHWYQQKPGQAPVLVIYDKSNRPSGIPERFSGSNSGNTATLTISGTQAEDEADYYCQSYANTLSLVFGGGTKLTVL
As for B1, in data set [4], the “Tolerability / bone safety in phase I trials” value is “closed early due to high rates of bone fracture”.
